Source: DBAASP
Values after ≈ are worked out from the molar mass of the structure shown. Values joined by “and” are separate entries in the source; they are usually repeats but may differ in a detail not shown here. Identical values can stand only once.

Columns and labels:
Assay in all cases: ≥ marks a high value that may be exact or a test limit, other limits are often not marked, values filed in µg/mL are converted to µM
[1] = system: Listeria monocytogenes KCTC 3710
Trichosporon beigelii = system: Trichosporon beigelii
Staphylococcus aureus = system: Staphylococcus aureus
Saccharomyces cerevisiae = system: Saccharomyces cerevisiae
Botrytis cinerea = system: Botrytis cinerea
Salmonella typhimurium = system: Salmonella typhimurium
[2] = system: Aspergillus fumigatus KCTC 6145
[3] = system: Escherichia coli O157:H7 ATCC 43895
[4] = system: Staphylococcus epidermidis
Escherichia coli = system: Escherichia coli
Pseudomonas aeruginosa = system: Pseudomonas aeruginosa
Bacillus subtilis = system: Bacillus subtilis
Fusarium verticillioides = system: Fusarium verticillioides
Proteus vulgaris = system: Proteus vulgaris
[5] = system: Aspergillus flavus KCTC 9471
[6] = system: Candida albicans KCTC 7270
[7] = system: Pseudomonas aeruginosa ATCC 15692
[8] = system: Escherichia coli ATCC 25922
[9] = system: Staphylococcus aureus ATCC 25923
[10] = system: Bacillus subtilis KCTC 1998
Escherichia coli HB101 = system: Escherichia coli HB101
[11] = system: Leishmania major MHOM/IL/67/JERICHO-II
[12] = system: Staphylococcus aureus Cowan 1
[13] = system: Escherichia coli ATCC 35218
[14] = system: Salmonella enterica subsp. enterica serovar Typhimurium ATCC 14028
[15] = system: Escherichia coli ATCC 11775
[16] = system: Salmonella enterica subsp. enterica serovar Typhi Vi+
Bacillus cereus C737 = system: Bacillus cereus C737
[17] = system: Pseudomonas aeruginosa PAO1
Escherichia coli UB1005 = system: Escherichia coli UB1005

Compound: CC[C@H](C)[C@H](NC(=O)[C@H](CCCCN)NC(=O)[C@H](CO)NC(=O)[C@H](Cc1ccccc1)NC(=O)[C@H](CC(C)C)NC(=O)[C@H](CCCCN)NC(=O)[C@H](CCC(=O)O)NC(=O)[C@H](CC(C)C)NC(=O)[C@H](CCCN=C(N)N)NC(=O)[C@H](CCCCN)NC(=O)[C@H](Cc1ccccc1)NC(=O)[C@@H](NC(=O)[C@H](CCCCN)NC(=O)[C@H](CCCCN)NC(=O)[C@H](C)N)C(C)C)C(=O)N[C@@H](Cc1c[nH]c2ccccc12)C(=O)N[C@@H](CC(N)=O)C(=O)N[C@@H](CC(=O)O)C(=O)N[C@@H](CCCCN)C(N)=O [AKKVFKRLEKLFSKIWNDK]
- MIC [1]: 1.56 µM (≈ 3.71 µg/mL)
- MIC (Trichosporon beigelii): 1.56 µM (≈ 3.71 µg/mL)
- MIC (Staphylococcus aureus): 6.25 µM (≈ 14.9 µg/mL)
- MIC (Saccharomyces cerevisiae): 25 µM (≈ 59.4 µg/mL)
- MIC (Botrytis cinerea): 6.25 µM (≈ 14.9 µg/mL)
- MIC (Salmonella typhimurium): 0.78 µM (≈ 1.85 µg/mL)
- MIC [2]: ≥ 50 µM
- MIC [3]: 6.25 µM (≈ 14.9 µg/mL)
- MIC [4]: 3.13 µM (≈ 7.44 µg/mL)
- MIC (Escherichia coli): 3.13 µM (≈ 7.44 µg/mL)
- MIC (Pseudomonas aeruginosa): 6.25 µM (≈ 14.9 µg/mL)
- MIC (Bacillus subtilis): 1.56 µM (≈ 3.71 µg/mL)
- MIC (Fusarium verticillioides): 25 µM (≈ 59.4 µg/mL)
- MIC (Proteus vulgaris): 3.13 µM (≈ 7.44 µg/mL)
- MIC [5]: ≥ 50 µM
- MIC [6]: 25 µM (≈ 59.4 µg/mL)

Compound: CC[C@H](C)[C@H](NC(=O)[C@H](CCCCN)NC(=O)[C@H](CO)NC(=O)[C@H](Cc1ccccc1)NC(=O)[C@H](CC(C)C)NC(=O)[C@H](CCCCN)NC(=O)[C@H](CCC(=O)O)NC(=O)[C@H](CC(C)C)NC(=O)[C@H](CCCN=C(N)N)NC(=O)[C@H](CCCCN)NC(=O)[C@H](Cc1ccccc1)NC(=O)[C@@H](NC(=O)[C@H](CCCCN)NC(=O)[C@H](CCCCN)NC(=O)[C@H](C)N)C(C)C)C(=O)N[C@@H](Cc1c[nH]c2ccccc12)C(=O)N[C@@H](CC(N)=O)C(=O)N[C@@H](Cc1c[nH]c2ccccc12)C(=O)N[C@@H](CCCCN)C(N)=O [AKKVFKRLEKLFSKIWNWK]
- MIC [1]: 0.39 µM (≈ 0.955 µg/mL)
- MIC [7]: 2 µM (≈ 4.9 µg/mL)
- MIC [8]: 2 µM (≈ 4.9 µg/mL)
- MIC (Trichosporon beigelii): 1.56 µM (≈ 3.82 µg/mL)
- MIC (Staphylococcus aureus): 1.56 µM and 3.13 µM
- MIC (Saccharomyces cerevisiae): 25 µM (≈ 61.2 µg/mL)
- MIC (Botrytis cinerea): 3.13 µM (≈ 7.67 µg/mL)
- MIC (Salmonella typhimurium): 0.39 µM (≈ 0.955 µg/mL)
- MIC [2]: 25 µM (≈ 61.2 µg/mL)
- MIC [3]: 3.13 µM (≈ 7.67 µg/mL)
- MIC [4]: 3.13 µM (≈ 7.67 µg/mL)
- MIC (Escherichia coli): 1.56 µM (≈ 3.82 µg/mL)
- MIC (Pseudomonas aeruginosa): 3.13 µM (≈ 7.67 µg/mL)
- MIC (Bacillus subtilis): 1.56 µM (≈ 3.82 µg/mL)
- MIC (Fusarium verticillioides): 12.5 µM (≈ 30.6 µg/mL)
- MIC (Proteus vulgaris): 3.13 µM (≈ 7.67 µg/mL)
- MIC [9]: 2 µM (≈ 4.9 µg/mL)
- MIC [5]: 25 µM (≈ 61.2 µg/mL)
- MIC [6]: 12.5 µM (≈ 30.6 µg/mL)
- MIC [10]: 2 µM (≈ 4.9 µg/mL)

Compound: CC[C@H](C)[C@H](NC(=O)[C@@H](NC(=O)[C@H](CC(=O)O)NC(=O)[C@H](C)NC(=O)[C@H](C)NC(=O)[C@H](C)NC(=O)CNC(=O)[C@H](CC(C)C)NC(=O)[C@H](C)NC(=O)[C@H](C)NC(=O)[C@H](CCCCN)NC(=O)CNC(=O)[C@H](C)NC(=O)[C@H](Cc1cnc[nH]1)NC(=O)[C@H](CC(C)C)NC(=O)[C@H](C)NC(=O)[C@H](CCSC)NC(=O)[C@@H](NC(=O)CNC(=O)[C@H](CC(C)C)NC(=O)[C@H](CCCCN)NC(=O)[C@H](CCCCN)NC(=O)[C@H](CC(C)C)NC(=O)[C@H](CCSC)NC(=O)[C@@H](NC(=O)[C@H](CCCCN)NC(=O)[C@H](Cc1c[nH]c2ccccc12)NC(=O)[C@H](CC(C)C)NC(=O)[C@H](C)N)[C@@H](C)O)[C@@H](C)O)[C@@H](C)O)C(N)=O [ALWKTMLKKLGTMALHAGKAALGAAADTI]
- MIC (Escherichia coli HB101): 2.7 µM (≈ 7.97 µg/mL)
- MIC [11]: 6.1 µM (≈ 18 µg/mL)
- MIC [12]: 2.7 µM (≈ 7.97 µg/mL)

Compound: CSCC[C@H](NC(=O)[C@@H](NC(=O)CNC(=O)[C@H](CC(C)C)NC(=O)[C@H](CCCCN)NC(=O)[C@H](CCCCN)NC(=O)[C@H](CC(C)C)NC(=O)[C@H](CCSC)NC(=O)[C@@H](NC(=O)[C@H](CCCCN)NC(=O)[C@H](Cc1c[nH]c2ccccc12)NC(=O)[C@H](CC(C)C)NC(=O)[C@H](C)N)[C@@H](C)O)[C@@H](C)O)C(=O)N[C@@H](C)C(=O)N[C@@H](CC(C)C)C(=O)N[C@@H](Cc1cnc[nH]1)C(=O)N[C@@H](C)C(=O)NCC(=O)N[C@@H](CCCCN)C(N)=O [ALWKTMLKKLGTMALHAGK]
- MIC (Escherichia coli HB101): 3.6 µM (≈ 7.55 µg/mL)
- MIC [11]: 17.9 µM (≈ 37.5 µg/mL)
- MIC [12]: ≥ 35.9 µM

Compound: CC[C@H](C)[C@H](NC(=O)[C@@H]1CCCN1C(=O)[C@H](CCCN=C(N)N)NC(=O)[C@@H]1CCCN1C(=O)[C@H](Cc1cnc[nH]1)NC(=O)[C@H](CO)NC(=O)[C@@H](NC(=O)[C@@H]1CCCN1C(=O)[C@H](CCCN=C(N)N)NC(=O)[C@@H]1CCCN1C(=O)[C@H](CO)NC(=O)[C@H](Cc1ccc(O)cc1)NC(=O)[C@@H]1CCCN1C(=O)[C@H](CCCCN)NC(=O)[C@@H]1CCCN1C(=O)[C@H](CCCCN)NC(=O)CN)[C@@H](C)O)C(=O)N[C@@H](CCCN=C(N)N)C(=O)N[C@H](C(=O)O)C(C)C [GKPKPYSPRPTSHPRPIRV]
- MIC [13]: 0.6 µM (≈ 1.3 µg/mL)
- MIC [8]: 1.5 µM (≈ 3.26 µg/mL)
- MIC [14]: 4 µM (≈ 8.68 µg/mL)
- MIC [15]: 1.1 µM (≈ 2.39 µg/mL)
- MIC [16]: 4 µM (≈ 8.68 µg/mL)

Compound: CC[C@H](C)[C@H](NC(=O)[C@@H]1CCCN1C(=O)[C@H](CCCCN)NC(=O)[C@@H]1CCCN1C(=O)[C@H](Cc1cnc[nH]1)NC(=O)[C@H](CO)NC(=O)[C@@H](NC(=O)[C@@H]1CCCN1C(=O)[C@H](CCCN=C(N)N)NC(=O)[C@@H]1CCCN1C(=O)[C@H](CO)NC(=O)[C@H](Cc1ccc(O)cc1)NC(=O)[C@@H]1CCCN1C(=O)[C@H](CCCN=C(N)N)NC(=O)[C@@H]1CCCN1C(=O)[C@H](CCCCN)NC(=O)CN)[C@@H](C)O)C(=O)N[C@@H](CCCN=C(N)N)C(=O)N[C@H](C(=O)O)C(C)C [GKPRPYSPRPTSHPKPIRV]
- MIC [13]: 3.5 µM (≈ 7.6 µg/mL)
- MIC [8]: 7 µM (≈ 15.2 µg/mL)
- MIC [14]: 25 µM (≈ 54.3 µg/mL)
- MIC [15]: 6 µM (≈ 13 µg/mL)
- MIC [16]: 30 µM (≈ 65.1 µg/mL)

Compound: CC[C@H](C)[C@H](NC(=O)[C@H](CC(=O)O)NC(=O)[C@H](Cc1ccccc1)NC(=O)[C@H](CC(C)C)NC(=O)CN)C(=O)N[C@H](C(=O)N[C@@H](CCCCN)C(=O)N[C@@H](CCCCN)C(=O)N[C@H](C(=O)N[C@H](C(=O)NCC(=O)N[C@@H](C)C(=O)N[C@@H](C)C(=O)NCC(=O)N[C@@H](CO)C(=O)N[C@@H](CC(C)C)C(N)=O)C(C)C)C(C)C)C(C)C [GLFDIVKKVVGAAGSL]
- MIC (Bacillus cereus C737): ≥ 81.3 µM
- MIC [17]: > 81.3 µM
- MIC (Escherichia coli UB1005): ≥ 81.3 µM
